Assay results published in US20080207617A1, “Quinoline Derivatives and Quinazoline Derivatives Inhibiting Autophosphrylation of Flt3 and Medicinal Compositions Containing the Same” (KIRIN BEER KABUSHIKI KAISHA, priority 2002, published 2008).
Counter-ions that a name gives are not always drawn.

Experiments:
FLT3 = target: T1, FLT3 (Homo sapiens, UniProt P36888); test: Inhibitory activity against FLT3 autophosphorylation using ELISA method; assay type: cell-based; details: MV4-11 cells, 1 hr with compound, read-out: IC50 of FLT3-phosphorylation
T1 sequence (P36888 with tags, fused parts or gaps INS600HVDFREYEYD): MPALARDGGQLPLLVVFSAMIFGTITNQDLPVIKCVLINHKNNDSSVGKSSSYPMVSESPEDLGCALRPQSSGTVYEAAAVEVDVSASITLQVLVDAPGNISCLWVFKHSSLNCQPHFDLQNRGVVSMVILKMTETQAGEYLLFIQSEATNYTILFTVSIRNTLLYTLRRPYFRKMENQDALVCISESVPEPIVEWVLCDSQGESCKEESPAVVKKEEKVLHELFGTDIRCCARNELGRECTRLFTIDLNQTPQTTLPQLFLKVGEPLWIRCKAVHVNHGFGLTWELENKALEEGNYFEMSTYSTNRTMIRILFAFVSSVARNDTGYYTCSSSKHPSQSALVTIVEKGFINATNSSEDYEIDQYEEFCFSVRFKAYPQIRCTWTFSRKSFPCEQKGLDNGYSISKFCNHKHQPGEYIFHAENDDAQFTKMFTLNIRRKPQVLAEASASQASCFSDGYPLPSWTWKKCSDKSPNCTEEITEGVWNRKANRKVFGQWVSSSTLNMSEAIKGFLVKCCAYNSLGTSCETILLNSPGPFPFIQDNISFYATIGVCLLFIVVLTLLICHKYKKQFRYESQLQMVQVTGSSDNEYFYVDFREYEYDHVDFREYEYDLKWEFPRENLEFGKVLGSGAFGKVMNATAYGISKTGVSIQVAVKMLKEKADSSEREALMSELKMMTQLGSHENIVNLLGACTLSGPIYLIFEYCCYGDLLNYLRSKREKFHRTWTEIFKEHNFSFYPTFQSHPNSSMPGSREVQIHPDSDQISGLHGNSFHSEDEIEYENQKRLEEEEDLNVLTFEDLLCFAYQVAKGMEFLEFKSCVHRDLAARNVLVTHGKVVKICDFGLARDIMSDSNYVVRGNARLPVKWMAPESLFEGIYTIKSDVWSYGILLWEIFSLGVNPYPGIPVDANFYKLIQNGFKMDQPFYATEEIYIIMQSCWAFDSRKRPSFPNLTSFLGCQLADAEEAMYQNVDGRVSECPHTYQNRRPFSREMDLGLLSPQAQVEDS
Protocol: Pharmacological Test Example 1
Measurement of Inhibitory Activity Against FLT3 Autophosphorylation Using ELISA Method
Human leukemia cells MV4-11 (ATCC number: CRL-9591) were cultured in an IMDM medium containing 10% fetal calf serum (purchased from SIGMA) within a 5% carbon dioxide incubator until 50 to 90% confluent. The harvested cells were seeded into 96-wells, plates, containing an IMDM medium containing 0.1% fetal calf serum, in a 96-well multiscreen plate in an amount of 5.0×10^5 per well, a solution of the test compound in dimethyl sulfoxide was added to each well, and the cultivation was continued at 37° C. for one hr. The medium was removed, followed by washing with phosphate buffered saline. A lysis buffer (60 μl) (20 mM HEPES (pH 7.4), 150 mM NaCl, 0.2% Triton X-100, 10% glycerol, 5 mM sodium orthovanadylate, 5 mM disodium ethylenediaminetetraacetate, and 2 mM Na4P2O7) was then added thereto. The mixture was shaken at 4° C. for 2 hr to prepare a cell extracts.
Separately, phosphate buffered saline (50 μl, pH 7.4) containing 5 μg/ml of anti-phospho-tyrosine antibody (PY20; purchased from Transduction Laboratories) was added to a 96-well microplate for ELISA (Maxisorp; purchased from NUNC), followed by standing at 4° C. overnight to form a solid phase on the wells. After washing of the plate, 250 μl of a blocking solution was added, followed by standing at room temperature for 3 hr to perform blocking. After washing, the whole quantity of the cell extract was transferred to the wells, and the plate was then allowed to stand at 4° C. overnight. After washing, an anti-FLT3 antibody (Flt3/Flk2 (C-20), purchased from Santa Cruz Biotechnology) was allowed to react at room temperature for 2 hr, and, after washing, a peroxidase-labeled anti-rabbit Ig antibody (purchased from Amersham) was allowed to react at room temperature for one hr. After washing, a chromophoric substrate for peroxidase (purchased from Sumitomo Bakelite Co., Ltd.) was added thereto to initiate a reaction. After a suitable level of color development, a reaction termination solution was added to stop the reaction, and the absorbance at 450 nm was measured with a microplate reader. The FLT3-phosphorylation activity for each well was determined by presuming the absorbance without the addition of the medicament to be 100% FLT3-phosphorylation activity and the absorbance with the addition of a large excess of a positive control (Compound 1, 10 μM) to be 0% FLT3-phosphorylation activity. The concentration of the test compound was varied on several levels, the FLT3-phosphorylation inhibitory activity was determined for each case, and the concentration of the test compound necessary for inhibiting 50% of FLT3-phosphorylation (IC50) was calculated.

MOLM13 = test: Cell growth inhibitory activity using MTT method (MOLM13); assay type: cell-based, human; details: MOLM13 cells

Row | Compound | IC50 (FLT3) | IC50 (MOLM13; Homo sapiens, MOLM-13, 72 h) | IC50 (MOLM13; 72 hr, hydrochloride)
1 | COc1cc2nccc(Oc3c(Cl)cc(NC(=O)NCCC(C)(C)C)cc3Cl)c2cc1OC [Compound 6, 1-[3,5-Dichloro-4-(6,7-dimethoxy-quinolin--4-yloxy)-phenyl]-3-(3,3-dimethyl-butyl)-urea] | 109 nM | 12.4 nM | –
2 | COc1cc2c(Oc3ccc(NC(=O)NCCC(C)(C)C)c(F)c3)ccnc2cc1OCCN1CCOCC1 [Compound 41, 1-(3,3-Dimethyl-butyl)-3-{2-fluoro-4-[6-methoxy-7-(2-morpholin-4-yl-ethoxy)-quinolin-4-yloxy]-phenyl}-urea hydrochloride] | 308 nM | – | 34.8 nM
3 | COc1cc2c(Oc3ccc(NC(=O)NCCC(C)(C)C)c(F)c3)ccnc2cc1OCCN1CCCCC1 [Compound 43, 1-(3,3-Dimethyl-butyl)-3-{2-fluoro-4-[6-methoxy-7-(2-piperidin-1-yl-ethoxy)-quinolin-4-yloxy]-phenyl}-urea hydrochloride] | 216 nM | 32.5 nM | –
4 | COc1cc2c(Oc3ccc(NC(=O)NCCC(C)(C)C)cc3F)ccnc2cc1OCCN1CCCCC1 [Compound 44, 1-(3,3-Dimethyl-butyl)-3-{3-fluoro-4-[6-methoxy-7-(2-piperidin-1-yl-ethoxy)-quinolin-4-yloxy]-phenyl}-urea] | 200 nM | 19.3 nM | –

The next lines start with the values.

Row | IC50 (FLT3) | IC50 (MOLM13; Homo sapiens, MOLM-13, 72 h) | IC50 (MOLM13; 72 hr, hydrochloride) | Compound
5 | 2 nM | 24.4 nM | – | COc1cc2nccc(Oc3ccc(NC(=O)NCCC(C)(C)C)cc3)c2cc1OC [Compound 1, 1-[4-(6,7-Dimethoxy-quinolin-4-yloxy)-phenyl]-3-(3,3-dimethyl-butyl)-urea hydrochloride]
6 | < 1 nM | 13.3 nM | – | COc1cc2nccc(Oc3ccc(NC(=O)NCCC(C)(C)C)cc3Cl)c2cc1OC [Compound 8, 1-[3-Chloro-4-(6,7-dimethoxy-quinolin-4-yloxy)-phenyl]-3-(3,3-dimethyl-butyl)-urea]
7 | < 1 nM | 20.8 nM | – | COc1cc2nccc(Oc3ccc(NC(=O)NCCC(C)(C)C)cc3F)c2cc1OC [Compound 10, 1-[4-(6,7-Dimethoxy-quinolin-4-yloxy)-3-fluoro-phenyl]-3-(3,3-dimethyl-butyl)-urea hydrochloride]
